Results on three molecules are retold here after ChEMBL document CHEMBL6087481, “Interleukin-1 Receptor-Associated Kinase 4 (IRAK4) Degraders for Treating Inflammatory Diseases: Advances and Prospects” (J Med Chem, 2025).

pIC50: −log10 of the molar value.

The target of test [1] is T1, Protein cereblon/Interleukin-1 receptor-associated kinase 4 (Mus musculus, UniProt Q8C7D2+Q8R4K2).
T1 sequence (Q8C7D2 whole entry): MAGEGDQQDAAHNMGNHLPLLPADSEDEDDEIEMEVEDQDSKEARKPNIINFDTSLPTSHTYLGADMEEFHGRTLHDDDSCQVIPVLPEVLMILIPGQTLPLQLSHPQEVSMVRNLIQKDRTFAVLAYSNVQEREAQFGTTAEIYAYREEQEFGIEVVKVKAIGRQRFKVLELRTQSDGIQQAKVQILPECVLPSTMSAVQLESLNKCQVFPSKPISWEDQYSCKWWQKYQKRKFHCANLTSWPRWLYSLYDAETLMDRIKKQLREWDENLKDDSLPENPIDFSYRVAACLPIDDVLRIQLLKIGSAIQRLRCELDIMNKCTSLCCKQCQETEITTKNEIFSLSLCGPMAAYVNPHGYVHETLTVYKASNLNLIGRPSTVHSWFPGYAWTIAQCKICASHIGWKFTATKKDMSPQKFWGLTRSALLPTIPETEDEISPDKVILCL
T1 sequence (Q8R4K2 whole entry): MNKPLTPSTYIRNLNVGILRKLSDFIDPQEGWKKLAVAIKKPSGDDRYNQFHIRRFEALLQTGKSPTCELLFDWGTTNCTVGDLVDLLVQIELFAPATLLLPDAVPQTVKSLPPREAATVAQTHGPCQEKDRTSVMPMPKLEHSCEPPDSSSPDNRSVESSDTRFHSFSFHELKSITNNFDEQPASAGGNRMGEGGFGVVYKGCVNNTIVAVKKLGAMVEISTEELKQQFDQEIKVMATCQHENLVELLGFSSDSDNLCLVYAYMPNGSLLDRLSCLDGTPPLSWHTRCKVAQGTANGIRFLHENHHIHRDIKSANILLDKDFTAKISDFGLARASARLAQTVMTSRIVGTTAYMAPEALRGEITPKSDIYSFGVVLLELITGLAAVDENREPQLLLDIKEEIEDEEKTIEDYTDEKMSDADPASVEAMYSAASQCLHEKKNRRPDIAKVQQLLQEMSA
Kind of test: PROTAC activity at IRAK4/CRBN in mouse RAW264.7 cells assessed as reduction in IRAK4 level incubated for 12 hrs by Western blot analysis. The format is cell-based. A general note: Immunoblotting shows a protein as a band on a membrane.

Test [2] deals with von Hippel-Lindau disease tumor suppressor/Interleukin-1 receptor-associated kinase 4 (Homo sapiens, UniProt Q9NWZ3+P40337). Kind of test: PROTAC activity at VHL/IRAK4 in human HEK293T cells assessed as IRAK4 degradation measured after 24 hrs by immunoblotting analysis. The format is cell-based.
von Hippel-Lindau disease tumor suppressor/Interleukin-1 receptor-associated kinase 4, sequence (P40337 whole entry, one chain of several): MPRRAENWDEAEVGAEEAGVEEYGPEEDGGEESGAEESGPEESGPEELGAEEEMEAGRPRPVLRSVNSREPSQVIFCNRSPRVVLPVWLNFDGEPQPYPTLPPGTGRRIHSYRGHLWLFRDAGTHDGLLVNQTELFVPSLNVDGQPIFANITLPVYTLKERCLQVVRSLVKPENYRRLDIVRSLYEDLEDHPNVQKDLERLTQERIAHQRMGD
The target of test [3] is T2, Interleukin-1 receptor-associated kinase 4 (Homo sapiens, UniProt Q9NWZ3).
T2 sequence (Q9NWZ3 whole entry): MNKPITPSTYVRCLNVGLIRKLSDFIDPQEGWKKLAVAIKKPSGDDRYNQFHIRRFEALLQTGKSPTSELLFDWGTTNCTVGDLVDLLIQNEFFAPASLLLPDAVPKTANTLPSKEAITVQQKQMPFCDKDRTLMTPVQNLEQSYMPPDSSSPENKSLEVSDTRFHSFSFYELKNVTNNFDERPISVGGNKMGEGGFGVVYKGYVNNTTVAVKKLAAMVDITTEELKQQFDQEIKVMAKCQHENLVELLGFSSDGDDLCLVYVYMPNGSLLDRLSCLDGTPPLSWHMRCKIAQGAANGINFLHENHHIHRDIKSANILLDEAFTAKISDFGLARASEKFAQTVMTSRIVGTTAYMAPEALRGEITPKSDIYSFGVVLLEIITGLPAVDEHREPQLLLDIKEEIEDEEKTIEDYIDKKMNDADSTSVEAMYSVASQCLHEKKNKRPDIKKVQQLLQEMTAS
Kind of test: Inhibition of IRAK4 (unknown origin).

Take `COc1cc(N2CCN(C(=O)CCOCC#Cc3ccc4c(c3)C(=O)N(C3CCC(=O)NC3=O)C4=O)CC2)ccc1NC(=O)c1cccc(-c2ccn[nH]2)n1` (stereo not drawn): the DC50 in test [1] amounted to 47.3 nM. On to `CC(C)Nc1cc(-n2ccc3cc(C#N)cnc32)ncc1C(=O)N[C@H]1CC[C@H](C(=O)NCCOCCNC(=O)Oc2cccc3c2C(=O)N(C2CCC(=O)NC2=O)C3=O)CC1` (stereo partly drawn), for which, in test [2], the DC50 is 405 nM. As usually defined, the pIC50 is the negative decadic logarithm of the IC50, by convention in mol/L. Higher therefore signals a low IC50. For `CC(C)Nc1cc(-n2ccc3cc(C#N)cnc32)ncc1C(=O)N[C@H]1CC[C@H](C(=O)NC2CC2)CC1`, the pIC50 in test [3] is 8.52.
